Assay results from PubChem BioAssay AID330 (DTP/NCI, 2004).
Where “and” joins values, the source holds several entries; their conditions need not be identical. Equal values may be shown once. Inconclusive results and toxic doses are left out.

Test system: P388 leukemia ip, CD2F1 mice, survival T/C
Assay: NCI In Vivo Anticancer Drug Screen. Data for tumor model P388 Leukemia (intraperitoneal) in CD2F1 (CDF1) mice
Details: endpoint: median survival time, higher = longer survival
Method in brief: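 Mice carrying the transplanted tumor received test compound or vehicle. Survival was recorded in each group, and the value is the treated-group measurement divided by that of the vehicle-treated control group.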

[1] = dose: 100.0 mg/kg/injection, schedule: Q04DX003 (ip), vehicle: saline
[2] = dose: 200.0 mg/kg/injection, schedule: Q04DX003 (ip), vehicle: saline
[3] = dose: 400.0 mg/kg/injection, schedule: Q04DX003 (ip), vehicle: saline
[4] = dose: 60.0 mg/kg/injection, schedule: Q01DX005 (ip), vehicle: Klucel (hydroxypropylcellulose) (HPC)
[5] = dose: 120.0 mg/kg/injection, schedule: Q01DX005 (ip), vehicle: Klucel (hydroxypropylcellulose) (HPC)
[6] = dose: 240.0 mg/kg/injection, schedule: Q01DX005 (ip), vehicle: Klucel (hydroxypropylcellulose) (HPC)
[7] = dose: 50.0 mg/kg/injection, schedule: Q01DX009 (ip), vehicle: Klucel (hydroxypropylcellulose) (HPC)
[8] = dose: 12.5 mg/kg/injection, schedule: Q01DX009 (ip), vehicle: Klucel (hydroxypropylcellulose) (HPC)
[9] = dose: 12.5 mg/kg/injection, schedule: Q04DX003 (ip), vehicle: saline with Tween-80
[10] = dose: 25.0 mg/kg/injection, schedule: Q04DX003 (ip), vehicle: saline with Tween-80
[11] = dose: 50.0 mg/kg/injection, schedule: Q04DX003 (ip), vehicle: saline with Tween-80
[12] = dose: 100.0 mg/kg/injection, schedule: Q04DX003 (ip), vehicle: saline with Tween-80
[13] = dose: 200.0 mg/kg/injection, schedule: Q04DX003 (ip), vehicle: saline with Tween-80
[14] = dose: 50.0 mg/kg/injection, schedule: Q01DX005 (ip), vehicle: saline with Tween-80
[15] = dose: 60.0 mg/kg/injection, schedule: Q01DX005 (ip), vehicle: saline with Tween-80
[16] = dose: 120.0 mg/kg/injection, schedule: Q01DX005 (ip), vehicle: saline with Tween-80
[17] = dose: 240.0 mg/kg/injection, schedule: Q01DX005 (ip), vehicle: saline with Tween-80
[18] = dose: 100.0 mg/kg/injection, schedule: Q01DX005 (ip), vehicle: saline with Tween-80
[19] = dose: 200.0 mg/kg/injection, schedule: Q01DX005 (ip), vehicle: saline with Tween-80
[20] = dose: 60.0 mg/kg/injection, schedule: Q01DX005 (ip), vehicle: saline
[21] = dose: 120.0 mg/kg/injection, schedule: Q01DX005 (ip), vehicle: saline
[22] = dose: 240.0 mg/kg/injection, schedule: Q01DX005 (ip), vehicle: saline

CCOC(=O)NC(NC(=O)OCC)c1ccc(OC)cc1
T/C [1]: 100 % of control | T/C [2]: 91 % of control | T/C [3]: 94 % of control

CCOC(=O)c1ccc(NC(=O)OCc2ccco2)cc1
T/C [4]: 89 % of control | T/C [5]: 92 % of control | T/C [6]: 91 % of control

Clc1ccc(N=Cc2cccs2)c(Cl)c1
T/C [7]: 118 % of control | T/C (dose: 100.0 mg/kg/injection, schedule: Q01DX009 (ip), vehicle: Klucel (hydroxypropylcellulose) (HPC)): 107 % of control | T/C (dose: 200.0 mg/kg/injection, schedule: Q01DX009 (ip), vehicle: Klucel (hydroxypropylcellulose) (HPC)): 110 % of control

O=C1c2ccccc2NC2(C(=O)Nc3ccccc32)N1N1CCOCC1 (stereo not given)
T/C (dose: 12.5 mg/kg/injection, schedule: Q01DX005 (ip), vehicle: Klucel (hydroxypropylcellulose) (HPC)): 100 % of control | T/C (dose: 25.0 mg/kg/injection, schedule: Q01DX005 (ip), vehicle: Klucel (hydroxypropylcellulose) (HPC)): 100 % of control | T/C (dose: 50.0 mg/kg/injection, schedule: Q01DX005 (ip), vehicle: Klucel (hydroxypropylcellulose) (HPC)): 101 % of control

C/C(N)=C/C(=O)c1ccccc1
T/C [1]: 102 % of control | T/C [2]: 100 % of control | T/C [3]: 105 % of control

CC(=O)OC(C)(C)/C=C/C(=O)[C@](C)(O)[C@H]1[C@H](O)C[C@@]2(C)[C@@H]3CC=C4[C@@H](C[C@H](O)[C@H](O)C4(C)C)[C@]3(C)C(=O)C[C@]12C
T/C (dose: 5.0 mg/kg/injection, schedule: Q01DX009 (ip), vehicle: saline with Tween-80): 107 % of control | T/C (dose: 10.0 mg/kg/injection, schedule: Q01DX009 (ip), vehicle: saline with Tween-80): 107 % of control | T/C (dose: 20.0 mg/kg/injection, schedule: Q01DX009 (ip), vehicle: saline with Tween-80): 112 % of control

Nc1nc([Se])c2ncn(C3CC(O)C(CO)O3)c2n1 (stereo not given)
T/C [8]: 160 % of control | T/C (dose: 25.0 mg/kg/injection, schedule: Q01DX009 (ip), vehicle: Klucel (hydroxypropylcellulose) (HPC)): 169 % of control and 173 % of control | T/C [7]: 112 % of control

C[CH2][Hg][S]c1nsc([S][Hg][CH2]C)n1
T/C (dose: 3.13 mg/kg/injection, schedule: Q01DX009 (ip), vehicle: Klucel (hydroxypropylcellulose) (HPC)): 94 % of control | T/C (dose: 6.25 mg/kg/injection, schedule: Q01DX009 (ip), vehicle: Klucel (hydroxypropylcellulose) (HPC)): 118 % of control and 95 % of control | T/C [8]: 98 % of control and 115 % of control

CC(=O)Nc1cccc(N(CCOS(C)(=O)=O)CCOS(C)(=O)=O)c1
T/C (dose: 20.0 mg/kg/injection, schedule: Q04DX003 (ip), vehicle: saline with Tween-80): 172 % of control

CC(C)C(C=O)C(O)(C(F)(F)F)C(F)(F)Cl (stereo not given)
T/C [9]: 100 % of control | T/C [10]: 90 % of control | T/C [11]: 95 % of control

COC(=O)CC(=O)c1ccc(OC(C)C)cc1
T/C (dose: 100.0 mg/kg/injection, schedule: Q01DX009 (ip), vehicle: saline with Tween-80): 100 % of control | T/C [12]: 100 % of control | T/C (dose: 200.0 mg/kg/injection, schedule: Q01DX009 (ip), vehicle: saline with Tween-80): 100 % of control | T/C [13]: 95 % of control | T/C (dose: 400.0 mg/kg/injection, schedule: Q01DX009 (ip), vehicle: saline with Tween-80): 100 % of control | T/C (dose: 400.0 mg/kg/injection, schedule: Q04DX003 (ip), vehicle: saline with Tween-80): 100 % of control

Cc1c(C(N)=O)c2ccccc2c2ccccc12
T/C (dose: 12.5 mg/kg/injection, schedule: Q01DX005 (ip), vehicle: saline with Tween-80): 109 % of control | T/C (dose: 25.0 mg/kg/injection, schedule: Q01DX005 (ip), vehicle: saline with Tween-80): 95 % of control | T/C [14]: 93 % of control and 95 % of control

CNc1nc(-c2ccc(C(C)(C)C)cc2)c(-c2ccc(C(C)(C)C)cc2)[nH]1
T/C (dose: 25.0 mg/kg/injection, schedule: Q04DX002 (ip), vehicle: saline with Tween-80): 117 % of control and 96 % of control | T/C (dose: 50.0 mg/kg/injection, schedule: Q04DX002 (ip), vehicle: saline with Tween-80): 107 % of control and 121 % of control

CCOc1ccccc1N=Nc1c(C)nc(N)nc1OCC
T/C [4]: 100 % of control | T/C [5]: 110 % of control | T/C [6]: 110 % of control

O=C(CC1=NC2NN(c3ccccc3)C(=O)C2=C1CC(=O)c1ccc(F)cc1)c1ccc(F)cc1 (stereo not given)
T/C [15]: 98 % of control | T/C [16]: 97 % of control | T/C [17]: 97 % of control

Cc1nn(-c2ccc(Cl)cc2)c2c1c(=O)[nH]c1ccccc12
T/C (dose: 3.75 mg/kg/injection, schedule: Q01DX005 (ip), vehicle: saline with Tween-80): 98 % of control | T/C (dose: 7.5 mg/kg/injection, schedule: Q01DX005 (ip), vehicle: saline with Tween-80): 92 % of control | T/C (dose: 15.0 mg/kg/injection, schedule: Q01DX005 (ip), vehicle: saline with Tween-80): 87 % of control and 88 % of control | T/C [15]: 87 % of control

CC(C=O)CC1CCCCC1 (stereo not given)
T/C [11]: 100 % of control | T/C [12]: 100 % of control | T/C [13]: 109 % of control

O=C(NN(Cc1ccccc1)S(=O)(=O)c1ccccc1)c1ccccc1
T/C [14]: 101 % of control | T/C [18]: 107 % of control | T/C [19]: 103 % of control

COC(=O)C1=C(O)c2cc(C)c(C)c(C#N)c2NC(=O)C1
T/C [15]: 95 % of control | T/C [16]: 97 % of control | T/C [17]: 93 % of control

COc1ccc(/C=C/c2cc(OC)cc(=O)o2)cc1
T/C [9]: 100 % of control | T/C [10]: 99 % of control | T/C [11]: 100 % of control | T/C [12]: 100 % of control

CN1C(=O)C2C=CC1c1ccccc12 (stereo not given)
T/C [1]: 104 % of control | T/C [2]: 106 % of control | T/C [3]: 99 % of control

Nn1cnc2[nH]ncc2c1=O
T/C [20]: 99 % of control | T/C [21]: 99 % of control | T/C [22]: 105 % of control

C=C1CCC2C(C)(CCC(O)C2(C)C(=O)O)C1CCc1ccoc1 (stereo not given)
T/C (dose: 20.0 mg/kg/injection, schedule: Q01DX005 (ip), vehicle: other): 95 % of control | T/C (dose: 40.0 mg/kg/injection, schedule: Q01DX005 (ip), vehicle: other): 100 % of control | T/C (dose: 80.0 mg/kg/injection, schedule: Q01DX005 (ip), vehicle: other): 103 % of control | T/C (dose: 160.0 mg/kg/injection, schedule: Q01DX005 (ip), vehicle: other): 95 % of control

CCC1(N(C)C)C(=O)NC(=O)N(C2CCCCC2)C1=O (stereo not given)
T/C [4]: 98 % of control | T/C [5]: 96 % of control | T/C [6]: 91 % of control

NC(=S)n1nc(-c2ccccc2)c(N=Nc2ccc(Cl)cc2Cl)c1-c1ccccc1
T/C [14]: 94 % of control | T/C [18]: 88 % of control | T/C [19]: 96 % of control

CN(C)N=Nc1cccc(C(F)(F)F)c1
T/C (dose: 25.0 mg/kg/injection, schedule: Q01DX008 (ip), vehicle: saline with Tween-80): 104 % of control | T/C (dose: 50.0 mg/kg/injection, schedule: Q01DX007 (ip), vehicle: saline): 120 % of control | T/C (dose: 50.0 mg/kg/injection, schedule: Q01DX008 (ip), vehicle: saline with Tween-80): 101 % of control | T/C (dose: 100.0 mg/kg/injection, schedule: Q01DX008 (ip), vehicle: saline with Tween-80): 101 % of control

O=C1CCCCC1C1(O)C(=O)Nc2ccccc21 (stereo not given)
T/C [20]: 98 % of control | T/C [21]: 89 % of control | T/C [22]: 89 % of control

Cc1ccc(/C=C/[N+](=O)[O-])cc1
T/C (dose: 6.25 mg/kg/injection, schedule: Q01DX009 (ip), vehicle: saline sonified): 100 % of control | T/C (dose: 12.5 mg/kg/injection, schedule: Q01DX009 (ip), vehicle: saline sonified): 100 % of control | T/C (dose: 25.0 mg/kg/injection, schedule: Q01DX009 (ip), vehicle: saline sonified): 100 % of control

CCCCCCCCCCCCCCCC(=O)N(CCCN(C)C)C(C)(C)CCC(C)(C)N(CCCN(C)C)C(=O)CCCCCCCCCCCCCCC
T/C (dose: 25.0 mg/kg/injection, schedule: Q01DX009 (ip), vehicle: other): 98 % of control | T/C (dose: 50.0 mg/kg/injection, schedule: Q01DX009 (ip), vehicle: other): 96 % of control
